Results taken from paper PMC3889641 (Inflammatory bowel diseases, 2013).
Where two headings read alike, the source gives them in different places.

What was measured:
[1] = tested on: rat bile duct ligation model of cirrhosis; conditions: ref [42]; cited from earlier work
[2] = tested on: LAP-β1 and αVβ3 integrin association in rat colon muscle; conditions: 18 mg/kg/d i.p., 42 d
[3] = tested on: phospho-Smad3(Ser423/425); experiment: pSmad3; set-up: species or system human; rat; conditions: legend of Fig. 2C-F; rats 18 mg/kg/d i.p.
αVβ5 = conditions: read-out: IC50 for αVβ5; stated in Discussion; no reference or method printed; cited from earlier work
[4] = tested on: cultured hepatic stellate cells; conditions: ref [42]; cited from earlier work
collagen = format: in vivo, rat (Sprague-Dawley); conditions: 18 mg/kg/d i.p., 42 d
MPO = format: in vivo, rat (Sprague-Dawley); conditions: TNBS/cilengitide rats, 42 d; TNBS/PBS 6.06 ± 0.30
CD11b = CD11b immunofluorescence; format: in vivo, rat (Sprague-Dawley); conditions: 42 d
[5] = tested on: Th1, Th2, Th17 and IL-1 related cytokines; format: in vivo, rat (Sprague-Dawley)
αVβ3 integrin = conditions: RGD mimetic peptides, like cilengitide, ref [43], cited from earlier work
[6] = tested on: Smad3 / phospho-Smad3(Ser423/425); experiment: Smad3 phosphorylation; format: in vivo, rat (Sprague-Dawley); conditions: EtOH treated rats, cilengitide 18 mg/kg/d i.p., 42 d
[7] = TNBS/cilengitide rats, 42 d, vs controls

cilengitide
fibrosis in vivo [1]: fibrosis worsened | association of LAP-β1 with integrin β3 ([2]; EtOH/cilengitide rats, EtOH/PBS 17.5 ± 1.0): 20.2 ± 1.2 pixels/hpf | association of LAP-β1 and αVβ3 ([2]; TNBS/cilengitide rats, TNBS/PBS 139 ± 8.0): 22.9 ± 1.3 pixels/hpf | pSmad3(Ser423/425) levels (in words) [3]: inhibited by cilengitide | IC50 (αVβ5): 37 nM | anti-fibrotic effect in vitro [4]: anti-fibrotic | collagen protein (Sircol assay) (collagen; EtOH/Cilengitide rats, EtOH/PBS 2.5 ± 0.13): 4.5 ± 0.23 ng/mL | collagen protein (Sircol assay) (collagen; TNBS/cilengitide rats, TNBS/PBS 38 ± 1.9): 9.5 ± 0.48 ng/mL | MPO activity (MPO): 4.49 ± 0.23 ng/µg protein | CD11b immunofluorescence (CD11b; EtOH/cilengitide rats, EtOH/PBS 450 ± 23): 585 ± 30 pixels/hpf | CD11b immunofluorescence (CD11b; TNBS/cilengitide rats, TNBS/PBS 550 ± 28): 500 ± 25 pixels/hpf | IFN-γ level [5, 7]: significantly lower than controls | IL-1α level [5, 7]: significantly lower than controls | IL-1β level [5, 7]: significantly lower than controls | IL-6 level [5, 7]: significantly lower than controls | IL-10 level [5, 7]: significantly lower than controls | TNF-α level [5, 7]: significantly lower than controls | levels of many cytokines ([5]; after 42 d of treatment with cilengitide): not altered | GM-CSF level ([5]; cilengitide, chronic TNBS model (Discussion)): increase the levels of GM-CSF | αVβ3 integrin function at high concentrations (αVβ3 integrin; high concentrations): inhibition of αVβ3 integrin function at the high concentrations | αVβ3 integrin function at lower concentrations (αVβ3 integrin; lower concentrations): activation of αVβ3 integrin at lower concentrations | Smad3(Ser423/425) phosphorylation [6]: did not affect phosphorylation
